This is an account of results in PMC2891242 (Bioorganic & medicinal chemistry, 2009).

“Also recorded” adds a separate entry of the source. Marks after values point to notes of the source that are not given here.

The target of one data set is rat NR1/NR2B (Rattus norvegicus, UniProt P35439+Q00960). Put plainly: Two electrode voltage clamp, recombinant NR1/NR2B in Xenopus oocytes. Conditions: n = 5. The format is cell-based.
The next data set has as its target GluR1 (Rattus norvegicus, UniProt P19490). Description: Two electrode voltage clamp, homomeric GluR1 AMPA receptors in Xenopus oocytes. The data set is classed as cell-based. Background: Two-electrode voltage clamp is typically applied to oocytes expressing channels or transporters.
The target of a further data set is GluR6 (Rattus norvegicus, UniProt P42260). The data set is classed as cell-based.
Sequence of GluR6 (P42260 32-908): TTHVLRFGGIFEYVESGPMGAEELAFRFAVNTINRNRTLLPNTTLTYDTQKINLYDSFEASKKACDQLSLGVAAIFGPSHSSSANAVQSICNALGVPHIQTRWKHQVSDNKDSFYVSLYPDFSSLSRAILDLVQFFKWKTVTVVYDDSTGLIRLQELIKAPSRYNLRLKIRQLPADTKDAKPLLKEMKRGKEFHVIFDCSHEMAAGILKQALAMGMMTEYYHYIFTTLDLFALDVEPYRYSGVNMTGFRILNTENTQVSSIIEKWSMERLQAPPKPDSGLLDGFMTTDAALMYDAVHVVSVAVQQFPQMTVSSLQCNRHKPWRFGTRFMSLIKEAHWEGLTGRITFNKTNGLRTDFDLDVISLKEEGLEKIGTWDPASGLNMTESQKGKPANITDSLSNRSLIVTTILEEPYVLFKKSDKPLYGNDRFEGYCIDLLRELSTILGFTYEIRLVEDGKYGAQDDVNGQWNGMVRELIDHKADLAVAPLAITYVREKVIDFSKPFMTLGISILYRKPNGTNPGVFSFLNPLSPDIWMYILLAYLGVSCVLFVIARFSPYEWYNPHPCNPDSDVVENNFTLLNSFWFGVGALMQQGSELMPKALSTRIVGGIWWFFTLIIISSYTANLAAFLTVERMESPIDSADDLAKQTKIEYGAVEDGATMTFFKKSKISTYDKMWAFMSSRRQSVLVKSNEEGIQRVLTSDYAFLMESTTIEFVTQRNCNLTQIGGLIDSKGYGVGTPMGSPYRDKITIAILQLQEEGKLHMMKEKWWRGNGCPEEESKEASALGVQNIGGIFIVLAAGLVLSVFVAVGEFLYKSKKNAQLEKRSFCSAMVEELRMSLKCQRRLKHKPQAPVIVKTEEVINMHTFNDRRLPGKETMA
In data set [1] the target is human ether-a-go-go potassium channel (hERG) (Homo sapiens, UniProt Q12809). Description: [3H]astemizole displacement, hERG expressed in HEK293 cells. The format is binding. A general note: The hERG channel carries a current that helps repolarise heart muscle cells.
Sequence of human ether-a-go-go potassium channel (hERG) (Q12809 whole entry): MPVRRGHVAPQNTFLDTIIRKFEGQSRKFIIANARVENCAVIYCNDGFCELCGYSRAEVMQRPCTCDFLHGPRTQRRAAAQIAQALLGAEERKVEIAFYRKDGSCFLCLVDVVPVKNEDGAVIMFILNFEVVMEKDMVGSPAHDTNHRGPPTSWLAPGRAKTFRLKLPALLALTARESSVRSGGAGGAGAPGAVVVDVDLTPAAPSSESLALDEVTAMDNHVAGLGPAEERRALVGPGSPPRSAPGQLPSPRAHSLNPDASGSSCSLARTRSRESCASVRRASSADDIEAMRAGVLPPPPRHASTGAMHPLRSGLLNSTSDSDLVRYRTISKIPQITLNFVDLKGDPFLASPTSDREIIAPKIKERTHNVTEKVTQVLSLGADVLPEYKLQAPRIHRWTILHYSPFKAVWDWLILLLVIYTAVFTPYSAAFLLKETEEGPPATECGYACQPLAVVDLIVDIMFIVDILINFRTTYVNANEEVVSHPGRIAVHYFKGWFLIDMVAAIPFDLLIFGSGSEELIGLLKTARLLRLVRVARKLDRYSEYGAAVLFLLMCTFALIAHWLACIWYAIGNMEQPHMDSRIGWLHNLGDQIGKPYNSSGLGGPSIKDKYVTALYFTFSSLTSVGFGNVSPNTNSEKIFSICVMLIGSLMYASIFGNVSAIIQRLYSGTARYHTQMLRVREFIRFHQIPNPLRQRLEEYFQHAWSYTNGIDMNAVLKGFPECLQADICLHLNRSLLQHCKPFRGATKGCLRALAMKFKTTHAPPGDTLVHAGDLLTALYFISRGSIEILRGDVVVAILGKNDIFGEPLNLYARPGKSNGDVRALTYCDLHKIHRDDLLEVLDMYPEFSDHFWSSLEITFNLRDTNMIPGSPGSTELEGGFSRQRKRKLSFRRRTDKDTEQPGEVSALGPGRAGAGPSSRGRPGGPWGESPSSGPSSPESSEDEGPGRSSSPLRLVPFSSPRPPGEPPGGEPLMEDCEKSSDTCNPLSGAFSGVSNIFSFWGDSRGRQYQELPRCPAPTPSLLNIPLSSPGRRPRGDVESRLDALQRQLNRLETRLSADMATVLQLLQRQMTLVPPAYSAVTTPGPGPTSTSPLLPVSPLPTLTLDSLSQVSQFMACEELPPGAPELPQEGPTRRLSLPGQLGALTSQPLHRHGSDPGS
The next data set deals with α1-adrenergic receptor. Put plainly: [3H]prazosin displacement from brain membranes. The data set is classed as binding, Wistar rat. Particulars: for α1-Adrenergic (% displacement at 3 μM): 3 μM test compound, 0.25 nM [3H]prazosin, duplicate; for α1-adrenergic binding: displacement of ligand at 3 μM.
The target of the next data set is NR1/NR2B(ΔATD) (Rattus norvegicus, UniProt Q00960). Put plainly: Two electrode voltage clamp, amino terminal domain deletion mutant NR1/NR2B. The format is cell-based. Conditions: maximal glutamate and glycine.
For data set [2], the system named is voltage-gated Na+ or K+ currents. The format is cell-based, rat. Conditions: 3 μM; cultured cortical neurons; Na+ at −10 mV, K+ at +50 mV.
A further data set deals with human NR1/NR2B (Homo sapiens, UniProt Q05586+Q13224). Put plainly: Two electrode voltage clamp concentration-effect curve, human NR1/NR2B. The format is cell-based.
Sequence of human NR1/NR2B (Q13224 27-1484, other chains not shown): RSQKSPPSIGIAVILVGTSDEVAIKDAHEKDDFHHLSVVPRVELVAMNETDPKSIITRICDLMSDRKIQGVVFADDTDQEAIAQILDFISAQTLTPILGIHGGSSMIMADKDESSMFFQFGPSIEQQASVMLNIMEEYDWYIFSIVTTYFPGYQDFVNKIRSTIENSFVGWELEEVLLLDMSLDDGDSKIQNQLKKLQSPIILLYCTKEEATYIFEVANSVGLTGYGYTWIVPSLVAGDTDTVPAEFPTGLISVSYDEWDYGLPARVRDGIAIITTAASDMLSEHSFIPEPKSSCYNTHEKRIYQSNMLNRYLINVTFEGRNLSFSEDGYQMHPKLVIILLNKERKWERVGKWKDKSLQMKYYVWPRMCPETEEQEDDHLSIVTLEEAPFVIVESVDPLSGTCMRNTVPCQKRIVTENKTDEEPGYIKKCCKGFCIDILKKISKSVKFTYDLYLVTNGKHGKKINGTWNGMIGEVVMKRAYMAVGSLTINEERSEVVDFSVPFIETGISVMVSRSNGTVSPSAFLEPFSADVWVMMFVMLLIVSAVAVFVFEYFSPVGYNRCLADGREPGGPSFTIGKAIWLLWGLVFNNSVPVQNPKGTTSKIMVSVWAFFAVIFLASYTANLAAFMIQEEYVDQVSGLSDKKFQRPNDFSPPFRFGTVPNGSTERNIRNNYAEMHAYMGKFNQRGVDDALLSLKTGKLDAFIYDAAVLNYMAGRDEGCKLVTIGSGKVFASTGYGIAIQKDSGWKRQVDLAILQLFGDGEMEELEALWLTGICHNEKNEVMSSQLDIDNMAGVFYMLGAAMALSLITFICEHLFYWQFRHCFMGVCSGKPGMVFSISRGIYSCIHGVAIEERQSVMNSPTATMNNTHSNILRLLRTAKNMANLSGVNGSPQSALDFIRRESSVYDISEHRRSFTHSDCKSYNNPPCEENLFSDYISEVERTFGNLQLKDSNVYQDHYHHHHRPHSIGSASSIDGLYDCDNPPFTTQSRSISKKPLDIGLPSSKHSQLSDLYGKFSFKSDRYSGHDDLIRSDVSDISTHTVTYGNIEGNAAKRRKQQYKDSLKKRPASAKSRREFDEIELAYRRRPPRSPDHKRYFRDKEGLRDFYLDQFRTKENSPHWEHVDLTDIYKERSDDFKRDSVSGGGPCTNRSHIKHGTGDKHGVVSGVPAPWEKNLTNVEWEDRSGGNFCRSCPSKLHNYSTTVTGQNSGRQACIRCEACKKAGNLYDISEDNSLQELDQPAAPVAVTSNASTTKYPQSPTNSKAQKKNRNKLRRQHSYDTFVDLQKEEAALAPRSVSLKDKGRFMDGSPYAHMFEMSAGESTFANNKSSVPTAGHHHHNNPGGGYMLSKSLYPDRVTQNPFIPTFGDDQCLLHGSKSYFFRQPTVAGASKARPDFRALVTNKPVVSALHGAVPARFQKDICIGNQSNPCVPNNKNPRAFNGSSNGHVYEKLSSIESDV
The next data set concerns MDR1. Description: MDR1-MDCK permeability. The data set is classed as in vitro ADME. Conditions: dog, MDCK-MDR1, pH 7.4.

Sequence of GluR1 (P19490 19-907): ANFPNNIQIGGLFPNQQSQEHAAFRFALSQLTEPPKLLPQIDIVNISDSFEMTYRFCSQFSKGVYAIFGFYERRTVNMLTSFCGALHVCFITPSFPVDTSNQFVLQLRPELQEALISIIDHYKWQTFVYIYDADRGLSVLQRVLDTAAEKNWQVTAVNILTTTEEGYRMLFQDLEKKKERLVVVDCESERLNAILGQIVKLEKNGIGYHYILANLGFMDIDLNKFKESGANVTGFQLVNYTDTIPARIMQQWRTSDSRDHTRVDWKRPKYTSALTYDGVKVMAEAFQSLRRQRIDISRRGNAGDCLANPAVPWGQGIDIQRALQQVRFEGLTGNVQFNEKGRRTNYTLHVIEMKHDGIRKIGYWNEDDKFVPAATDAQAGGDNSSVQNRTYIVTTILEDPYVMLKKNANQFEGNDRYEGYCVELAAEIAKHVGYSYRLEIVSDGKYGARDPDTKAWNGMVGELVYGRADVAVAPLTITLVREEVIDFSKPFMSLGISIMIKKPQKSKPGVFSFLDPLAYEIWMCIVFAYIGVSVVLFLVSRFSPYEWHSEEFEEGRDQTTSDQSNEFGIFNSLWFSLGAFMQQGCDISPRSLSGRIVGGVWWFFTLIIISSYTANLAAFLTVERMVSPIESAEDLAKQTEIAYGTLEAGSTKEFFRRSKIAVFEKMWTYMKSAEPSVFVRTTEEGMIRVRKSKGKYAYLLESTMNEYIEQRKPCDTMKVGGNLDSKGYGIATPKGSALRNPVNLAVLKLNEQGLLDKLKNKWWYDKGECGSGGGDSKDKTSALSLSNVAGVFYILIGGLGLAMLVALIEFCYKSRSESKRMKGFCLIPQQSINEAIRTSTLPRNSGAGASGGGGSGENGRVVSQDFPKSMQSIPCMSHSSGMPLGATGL

For `CS(=O)(=O)Nc1ccc(OCC(=O)NCCNc2ccc(Cl)c(Cl)c2)cc1` [Compound 52, N-(2-(3,4-Dichlorophenylamino)ethyl)-2-(4-(meth-ylsulfonamido)phenoxy)acetamide], at rat NR1/NR2B, the “voltage dependence of inhibition” value is “voltage-independent”. In addition, the “effect on recombinant AMPA (GluR1) receptors” value at GluR1 (3 μM) was “no detectable effects”. Also, the “effect on recombinant kainate receptors (GluR6)” value on GluR6 (3 μM) was “no detectable effects”. Besides, in [1], the Ki is ~12 µM and the “hERG binding” value was “minimal”. Besides, in the data set with α1-adrenergic receptor, the “α1-Adrenergic (% displacement at 3 μM)” value is reported as <1% and the “α1-adrenergic binding” value was “neither amide 49 or 52 showed any α1-adrenergic binding; also recorded: minimal”. Moreover, the “effect on current response of NR1/NR2B(ΔATD)” value at NR1/NR2B(ΔATD) was “virtually no effect”. Also, the “effect on voltage-gated Na+ or K+ currents” value in data set [2] is recorded as “no detectable effects”.
For `CS(=O)(=O)Nc1ccc(CCCN2CCN(c3ccc(Cl)c(Cl)c3)C2=O)cc1` [Compound 70, N-(4-(3-(3-(3,4-Dichlorophenyl)-2-oxoimidazolidin-1-yl)propyl)phenyl)methanesulfonamide], in the data set on α1-adrenergic receptor, the “α1-Adrenergic (% displacement at 3 μM)” value is on record as <1% and the “α1-adrenergic binding” value is given as “negligible”.
For `CS(=O)(=O)Nc1ccc(CCC(=O)NCCNc2ccc(Cl)c(Cl)c2)cc1` [Compound 49, N-(2-(3,4-Dichlorophenylamino)ethyl)-3-(4-(methylsulfonamido)phenyl)propanamide], the “α1-adrenergic binding” value in the data set with α1-adrenergic receptor was “neither amide 49 or 52 showed any α1-adrenergic binding”.
For the compound `CS(=O)(=O)Nc1ccc(OCCNCC(=O)Nc2ccc(Cl)c(Cl)c2)cc1` [Compound 67, N-(3,4-Dichlorophenyl)-2-(2-(4-(methylsulfonamido)-phenoxy)ethylamino) acetamide], the IC50 at human NR1/NR2B is ~1 µM.
As for `CS(=O)(=O)Nc1ccc(OCC(=O)NCCCc2ccc(Cl)c(Cl)c2)cc1` [Compound 54, N-(3-(3,4-Dichlorophenyl)propyl)-2-(4-(methylsulfonamido)phenoxy)acetamide], the “hERG binding” value in data set [1] is on record as “negligible”. Besides, in the data set on α1-adrenergic receptor, the “α1-Adrenergic (% displacement at 3 μM)” value is given as <1% and the “α1-adrenergic binding” value is “negligible”.
Consider `CS(=O)(=O)Nc1ccc(CCC(=O)NNC(=O)Cc2ccc(Cl)c(Cl)c2)cc1` [Compound 16, N’-(2-(3,4-Dichlorophenyl)acetyl)-3-(4-(methylsulfonamido)phenyl)propanehydrazide], for which the remaining activity at 3 µM at GluR1 (read-out: GluR1 % response) was 101 ± 0.5%; on GluR6 (read-out: GluR6 % response) it was 97 ± 1%. The compound further yielded an IC50 at human NR1/NR2B of 5.75 µM.
As for `CS(=O)(=O)Nc1ccc(CCC(=O)NNC(=S)Nc2ccc(Cl)c(Cl)c2)cc1` [Compound 14, 4-(3,4-Dichlorophenyl)-1-(3-(4-(methylsulfonamido)-phenyl)propanoyl)thiosemicarbazide], in the data set on α1-adrenergic receptor, the “α1-Adrenergic (% displacement at 3 μM)” value was <1%.
The compound `CS(=O)(=O)Nc1ccc(OCC(=O)N2CCN(c3ccc(Cl)c(Cl)c3)CC2)cc1` [Compound 57, N-(4-(2-(4-(3,4-Dichlorophenyl)piperazin-1-yl)-2-oxoethoxy)phenyl)methanesulfonamide] had a Papp A→B at 2 h, 5 μM with MDR1 of 4.8 ×10⁻⁶ cm/s.
As for `CS(=O)(=O)Nc1ccc(CCC(=O)NC/C=C/c2ccc(Cl)c(Cl)c2)cc1` [Compound 50, N-(3,4-Dichlorocinnamyl)-3-(4-(methylsulfonamido)-phenyl)propanamide], the “hERG (% displacement) at 3 μM” value in data set [1] (3 μM test compound, 1.5 nM [3H]-astemizole) was 47 ^* %. For the same compound, the “α1-adrenergic binding” value in the data set with α1-adrenergic receptor is given as “without actions”.
Turning to `CS(=O)(=O)Nc1ccc(OCCN2CCN(c3ccc(Cl)c(Cl)c3)C2=O)cc1` [Compound 71, N-(4-(2-(3-(3,4-Dichlorophenyl)-2-oxoimidazolidin-1-yl)ethoxy)phenyl)methanesulfonamide], the “α1-adrenergic binding” value in the data set with α1-adrenergic receptor is on record as “negligible”.

What is called Ki is the equilibrium dissociation constant of an inhibitor or competing ligand from its target. Usually IC50 stands for the concentration needed to halve the response being measured. Low values mean greater potency, high ones weaker potency. In general, Papp A→B refers to how fast a substance crosses the layer from the apical side. Low values mean poor permeation, high ones ready permeation.
